From publication PMC10451632, “Site Mutation Improves the Expression and Antimicrobial Properties of Fungal Defense” (Antibiotics, 2023)
In brackets after ≈: the same amount, converted by molar mass. Read-outs that look alike come from different tables or passages of the source. Marks after values point to notes of the source that are not given here.

Tests used:
[1] = system: S. aureus ATCC 43300; experiment: Time-killing curves; assay type: cell-based, Staphylococcus aureus
Experimental: S. aureus ATCC 43300 was cultured to the logarithmic stage, MHB medium was used for adjusting the concentration of bacterial suspension, and PN7 (1×, 2× and 4× MIC), Plectasin (1×, 2× and 4× MIC) and 2× MIC vancomycin (the MIC was 1 μg/mL) were added into the suspensions containing 10^5 CFU/mL bacteria (after the count of viable bacteria detection, the initial inoculation amount was 5.15 Log10 CFU/mL), cultured at 37 °C and 250 rpm. A 100 CFU/mL is considered the detection limit. […] In contrast, the count was reduced by 1.6 Log10 CFU/mL after treatment with 2× MIC vancomycin, an approximately 66% population decrease of target pathogens compared with the PN7 treatment group at the same time point of the second hour. After 4 h, the colony number of the peptide treatment group was almost 0, while that of the vancomycin treatment group was 0 after 8 h, at 4 h later than the PN7 treatment. At 24 h, the number of colonies of only 1× MIC Plectasin treatment group rebounded, while no such phenomenon occurred in the other treatment groups.
S. aureus ATCC 43300 was cultured to the logarithmic stage. MHB medium adjusted the concentration of bacterial suspension, and PN7 (1×, 2× and 4× MIC) was added into the suspensions containing 10^5 CFU/mL bacteria, cultured at 37 °C and 250 rpm. 1×, 2×, 4× MIC Plectasin and 2× MIC vancomycin were used as positive controls, and the group treated without antibiotics was used as the blank controls. Then, 100 μL samples were taken at different time points and were continuously diluted and coated on MHA medium for colony counting. A 100 CFU/mL is considered the detection limit.

[2] = system: S. aureus ATCC 43300; experiment: Membrane permeability, PI staining by FACS; assay type: cell-based, Staphylococcus aureus; conditions: 2× MIC, 10^8 CFU/mL, 37 °C
Experimental: Figure 8 In vitro antimicrobial analysis of PN7. (A): Time-kill curve of PN7, Plectasin, and vancomycin against S. aureus ATCC. All experiments were performed in triplicate. (B): The PAE of 1×, 2× and 4× MIC of PN7 and vancomycin against S. aureus ATCC 43300 (the MIC values of PN7 and vancomycin against S. aureus ATCC 43300 were 8 μg/mL and 1μg/mL, respectively). All experiments were performed in triplicate. (C): The morphological influence of PN7 on S. aureus ATCC 43300 was observed by SEM. (D,E): The effects of PN7 (D) and Plectasin (E)) on membrane permeability were analyzed by FACS. The logarithmic phase S. aureus ATCC 43300 cells (10^8 CFU/mL) were incubated with or without 2× MIC peptide solutions at 37 °C at different times. All experiments were performed in triplicate. Ple stands for the Plectasin treatment group, Van stands for the vancomycin treatment group, and CK stands for the untreated group. TEXT PRINTED IN THE PICTURE: (D) PN7: 34.4% (2×; 90min); 31.2% (2×; 75min); 30.4% (2×; 60min); 19.2% (2×; 45min); 16.7% (2×; 30min); 1.94% (2×; 15min) | (E) Ple: 32.0% (2×; 90min); 27.4% (2×; 75min); 25.2% (2×; 60min); 12.8% (2×; 45min); 12.0% (2×; 30min); 2.11% (2×; 15min) DOUBTS OF THE COPYIST ABOUT THIS PICTURE: Panels D and E: the picture prints no measure for the percentages, only labels such as "2×PN7-90min: 34.4%" / Panels D and E: "CK: 0.54%" is the untreated control, not a substance, and was left out
The fluorescent dye propidium iodide (PI; Solarbio, Beijing, China) was used to detect the effect of PN7 on the membrane permeability of Staphylococcus aureus. The test method refers to the descriptions in previous studies.

[3] = system: E. coli O157; conditions: data cited from previous results; cited from earlier work
From the text: (§1) Table 6 Antibacterial spectrum (MIC). | column: MIC (μg/mL) / Plectasin

[4] = system: Escherichia coli CVCC 195; conditions: data cited from previous results; cited from earlier work
From the text: as §1

[5] = system: P. aeruginosa CICC 21630; conditions: data cited from previous results; cited from earlier work
From the text: as §1

[6] = system: S. aureus CVCC 546; conditions: data cited from previous results; cited from earlier work
From the text: as §1

[7] = system: S. aureus E48; conditions: data cited from previous results; cited from earlier work
From the text: as §1

[8] = system: S. pullorum CVCC 1789; conditions: data cited from previous results; cited from earlier work
From the text: as §1

[9] = system: Staphylococcus aureus ATCC 43300; conditions: data cited from previous results; cited from earlier work
From the text: as §1

[10] = system: Streptococcus. suis CVCC 606; conditions: data cited from previous results; cited from earlier work
From the text: as §1

[11] = system: Staphylococcus aureus ATCC 43300; experiment: microbe, parasite or virus in culture; assay type: cell-based; conditions: Staphylococcus aureus, ATCC43300; microtiter broth dilution, MHB, 10^5 CFUs/mL, 16–18 h at 37 °C; read-out: MIC
Experimental: The experimental operation of the expression of the Plectasin variant in P. pastoris in well plates, shaking flasks, and 5 L level fermentation was performed as referenced in previous studies. Candidates were identified through three different levels of screening. Firstly, a large number of transformants were screened through well plates to induce expression and determined by the inhibition zone assay (against S. aureus ATCC 43300). Secondly, the transformants with obvious inhibition zones were sequenced to obtain protein sequence information, then induced expression at the shake level. The supernatant was collected and purified to obtain the target protein; the anti-Staphylococcus aureus activity of the protein was detected by a MIC assay. Finally, the codons of candidate sequences were optimized, the expression vector was reconstructed, the optimal transformers were obtained, and the high-density cultivation was performed in a 5 L fermenter. The final agent was determined by high protein yield and good activity (Figure 2).
The MIC value of PN7 against bacteria was determined by the microtiter broth dilution method. Briefly, bacteria grown to the exponential phase were diluted into MHB; subsequently, 90 μL of bacterial suspension (10^5 CFUs/mL) was mixed with 10 μL of different concentrations of PN7 in a sterilized 96-well microtiter plate (Nunc). MIC values were recorded after incubation for 16–18 h at 37 °C based on the lowest concentrations of peptides in which no visible bacterial growth was observed.

[12] = system: S. aureus ATCC 43300; experiment: Post antibiotic effect (PAE); assay type: cell-based, Staphylococcus aureus; conditions: triplicate
From the text: The post-antibiotic effect reflects the inhibitory effect on the growth of pathogenic bacteria after short contact with drugs, which is related to the strength of the bactericidal activity of drugs. The test method of the PAE of PN7 against S. aureus ATCC 43300 refers to the descriptions in previous studies.

| Compound | number of colonies at 24 h ([1]; 1× MIC, time-kill) | PI-staining percentage of cells ([2]; 30 min) | PI-staining percentage of cells ([2]; 60 min) | PI-staining percentage of cells ([2]; 90 min) | MIC [3] | MIC [4] | MIC [5] | MIC [6] | MIC [7] | MIC [8] | MIC [9] | MIC [10] | MIC [11] | reduction of bacterial counts during the first two hours ([1]; 2× MIC, initial inoculum 5.15 Log10 CFU/mL, MHB, 37 °C, 250 rpm, triplicate) | time to kill 99% of S. aureus ATCC 43300 ([1]; time-kill, 2× MIC) | time after which the colony number was (almost) 0 ([1]; time-kill, detection limit 100 CFU/mL, vancomycin at 2× MIC) | PAE ([12]; 1× MIC) | PAE ([12]; 2× MIC) | PAE ([12]; 4× MIC) |
| --- | --- | --- | --- | --- | --- | --- | --- | --- | --- | --- | --- | --- | --- | --- | --- | --- | --- | --- | --- |
| CC[C@H](C)[C@@H]1NC(=O)[C@H](CO)NC(=O)[C@H](CCCCN)NC(=O)[C@@H]2CSSC[C@@H](C(=O)N[C@@H](Cc3ccc(O)cc3)C(=O)O)NC(=O)[C@H](CCCCN)NC(=O)[C@@H]3CSSC[C@H](NC(=O)[C@H](CCC(N)=O)NC(=O)[C@H](CCSC)NC(=O)[C@H](CC(=O)O)NC(=O)[C@H](CC(=O)O)NC(=O)[C@H](CCC(=O)O)NC(=O)[C@H](CC(=O)O)NC(=O)[C@H](Cc4c[nH]c5ccccc45)NC(=O)[C@@H]4CCCN4C(=O)CNC(=O)[C@H](CC(N)=O)NC(=O)[C@@H](NC(=O)CNC(=O)[C@H](Cc4ccccc4)NC(=O)CN)CSSC[C@H](NC(=O)[C@H](Cc4ccc(O)cc4)NC(=O)CNC(=O)CNC(=O)[C@H](CCCCN)NC(=O)[C@H](Cc4ccc(O)cc4)NC(=O)CNC(=O)[C@H](CCCCN)NC1=O)C(=O)N[C@@H](C)C(=O)N[C@@H](CCCCN)C(=O)NCC(=O)NCC(=O)N[C@@H](Cc1ccccc1)C(=O)N[C@@H](C(C)C)C(=O)N3)C(=O)N[C@@H](Cc1c[nH]cn1)C(=O)N[C@@H](CC(N)=O)C(=O)N[C@@H](Cc1c[nH]cn1)C(=O)N2 [Plectasin] | rebounded | 12.0% | 25.2% | 32.0% | >128 ^a μg/mL | >128 ^a μg/mL | >128 ^a μg/mL | 16 ^a μg/mL | 4 ^a μg/mL | >128 ^a μg/mL | 4 ^a μg/mL | 1 ^a μg/mL |  |  |  |  |  |  |  |
| CN[C@H](CC(C)C)C(=O)N[C@H]1C(=O)N[C@@H](CC(N)=O)C(=O)N[C@H]2C(=O)N[C@H]3C(=O)N[C@H](C(=O)N[C@H](C(=O)O)c4cc(O)cc(O)c4-c4cc3ccc4O)[C@H](O)c3ccc(c(Cl)c3)Oc3cc2cc(c3O[C@@H]2O[C@H](CO)[C@@H](O)[C@H](O)[C@H]2O[C@H]2C[C@](C)(N)[C@H](O)[C@H](C)O2)Oc2ccc(cc2Cl)[C@H]1O [vancomycin, reference compound] |  |  |  |  |  |  |  |  |  |  |  |  | 1 µg/mL (≈ 0.69 µM) | 1.6 Log10 CFU/mL | 8 h | 8 h | 0.11 h | 0.54 h | 0.78 h |
